Experimental findings from ChEMBL document CHEMBL1142165, “Influence on mitochondria and cytotoxicity of different antibiotics administered in high concentrations on primary human osteoblasts and cell lines” (Antimicrob Agents Chemother, 2007) are described below.

The nature of assay [1]: Antiproliferative effect against primary human osteoblasts assessed as BrdU incorporation into DNA after 48 hrs. The format is functional, cell-based. The settings on record: Osteoblast.
Assay [2] deals with Osteoblast. Kind of assay: Inhibition of metabolic activity in primary human osteoblasts assessed as MTT reduction after 48 hrs. The format is functional, cell-based. For orientation: Tetrazolium dyes change colour on reduction, which living cells bring about.
Assay [3] relates to MG-63. The assay can be described thus: Antiproliferative effect against MG63 cells assessed as BrdU incorporation into DNA after 48 hrs after 48 hrs. The format is functional, cell-based. The settings on record: Homo sapiens, MG-63, 48 h. A general note: Incorporation of labelled thymidine or its analogues reports DNA synthesis.
Assay [4] deals with MG-63. The assay can be described thus: Inhibition of metabolic activity in MG63 cells assessed as MTT reduction after 48 hrs. Format: functional, cell-based. Conditions: Homo sapiens, MG-63, 48 h.
In assay [5] the test system is HeLa. The assay can be described thus: Antiproliferative effect against HeLa cells after 48 hrs. Format: functional, cell-based. The settings on record: Homo sapiens.
Assay [6] concerns HeLa. The assay can be described thus: Inhibition of metabolic activity in HeLa cells assessed as MTT reduction after 48 hrs. Format: functional, cell-based. Conditions: Homo sapiens.
In assay [7] the test system is Osteoblast. The assay can be described thus: Increase in lactate production in primary human osteoblasts at 400 ug/ml by ELISA relative to control. The format is functional. (In general: In an ELISA, binding on a coated surface is turned into a signal by an enzyme label.)
In assay [8] the test system is Osteoblast. The assay can be described thus: Increase in lactate production in primary human osteoblasts at 1.5 ug/ml by ELISA. Format: functional.
In assay [9] the test system is Osteoblast. Kind of assay: Antiproliferative effect against primary human osteoblasts in presence of 10% FCS. Format: functional, cell-based.
Assay [10] concerns Osteoblast. The assay can be described thus: Increase in lactate production in primary human osteoblasts at 10 hrs by ELISA. The format is functional.
Assay [11] deals with Osteoblast. The assay can be described thus: Antiproliferative effect against primary human osteoblasts assessed as BrdU incorporation into DNA after 48 hrs after 48 hrs below 1 uM. Format: functional, cell-based.
Assay [12] relates to Osteoblast. Kind of assay: Inhibition of metabolic activity in primary human osteoblasts by MTT assay below 1 uM. The format is functional, cell-based.
Assay [13] has as its system Osteoblast. The assay can be described thus: Increase in lactate production in primary human osteoblasts above 0.25 uM by ELISA. Format: functional.
The subject of assay [14] is MG-63. Kind of assay: Increase in lactate production in MG63 cells at 50 nM by ELISA relative to control. Format: functional, Homo sapiens.
Assay [15] has as its system MG-63. The assay can be described thus: Inhibition of metabolic activity in MG63 cells by MTT assay relative to control. Format: functional, Homo sapiens.
The subject of assay [16] is Osteoblast. The assay can be described thus: Increase in lactate production in primary human osteoblasts at 6 ug/ml by ELISA. The format is functional.

In brackets after ≈: the same amount, converted by molar mass. Activity calls are given as the source filed them. The calls are words filed in the database; no cut-off is given here.

For orientation: IC20 means the concentration at which the effect reaches the 20% level. A word on the IC50: it is the concentration needed to halve the response being measured. Broadly, the Inhibition is the share of the control response that was lost under treatment. Low readings indicate a weak effect, high ones a strong effect.

For `O=C(N[C@H](CO)[C@H](O)c1ccc([N+](=O)[O-])cc1)C(Cl)Cl` [CHLORAMPHENICOL], the IC20 was 60 µg/mL (≈ 186 µM) in assay [1]; 260 µg/mL (≈ 805 µM) in the assay with Osteoblast [2]; 200 µg/mL (≈ 619 µM) with MG-63 [3]; 110 µg/mL (≈ 340 µM) in the assay with MG-63 [4]; 340 µg/mL (≈ 1050 µM) in the assay on HeLa [5]; 100 µg/mL (≈ 309 µM) in the assay on HeLa [6]. Further, the IC50 in assay [1] was 230 µg/mL (≈ 712 µM); with Osteoblast [2] it was greater than 400 µg/mL; in the assay with MG-63 [3], greater than 400 µg/mL; in the assay on MG-63 [4], 400 µg/mL (≈ 1240 µM); in the assay on HeLa [5], greater than 400 µg/mL; in the assay on HeLa [6], 340 µg/mL (≈ 1050 µM). The Activity was 150% with Osteoblast [7] and 12% in the assay on Osteoblast [8]. The result with Osteoblast [9] was Active.

In the case of `CCCCCC[C@H]1C(=O)O[C@H](C)[C@H](NC(=O)c2cccc(NC=O)c2O)C(=O)O[C@@H](C)[C@@H]1OC(=O)CC(C)C` [ANTIMYCIN A], the values for the Activity in the assay with Osteoblast [10], with Osteoblast [13] and in the assay on MG-63 [14] were 14 µmol, 150% and 50%, respectively. The result in the assay with Osteoblast [11] and in the assay with Osteoblast [12] was inactive. In the assay with MG-63 [15], this compound registered an Inhibition of 70%.

Consider `CC(=O)NC[C@H]1CN(c2ccc(N3CCOCC3)c(F)c2)C(=O)O1` [LINEZOLID], for which the IC20 was 240 µg/mL (≈ 711 µM) in assay [1], greater than 400 µg/mL in the assay with Osteoblast [2], 250 µg/mL (≈ 741 µM) in the assay with MG-63 [4] and 300 µg/mL (≈ 889 µM) in the assay with HeLa [6]. The concentration for half-maximal inhibition (IC50) (in [1]; with Osteoblast [2]; in the assay on MG-63 [4]; with HeLa [6]) was greater than 400 µg/mL each time. The Activity in the assay on Osteoblast [7] came to 120%; in the assay with Osteoblast [16], 13%.
